Reference: the NIST ThermoML archive (doi:10.1021/je025657+)
“And” between values parts separate entries of the source, which are not always exact repeats. Equal entries are not always repeated. ± gives the expanded uncertainty stated by the source.

COC(F)(F)C(F)(F)F [methyl pentafluoroethyl ether]
Settings | mass density [kg/m3]
360 K, 2003.3 kPa, Liquid | 1056.42 ± 0.49
360 K, 2053.3 kPa, Liquid | 1055.56 ± 0.49
360 K, 2463 kPa, Liquid | 1063.09 ± 0.52
360 K, 2984.8 kPa, Liquid | 1070.14 ± 0.55
360 K, 3048.1 kPa, Liquid | 1069.38 ± 0.55
360 K, 3506.1 kPa, Liquid | 1076.76 ± 0.58
360 K, 4021.5 kPa, Liquid | 1082.91 ± 0.62
360 K, 4078.7 kPa, Liquid | 1081.81 ± 0.61
360 K, 4467.5 kPa, Liquid | 1087.96 ± 0.64
360 K, 5021.2 kPa, Liquid | 1093.94 ± 0.69
360 K, 5093.9 kPa, Liquid | 1092.92 ± 0.69
360 K, 5527.2 kPa, Liquid | 1099.14 ± 0.73
360 K, 5980.2 kPa, Liquid | 1103.61 ± 0.76
360 K, 6147.8 kPa, Liquid | 1103.45 ± 0.77
360 K, 6519.9 kPa, Liquid | 1108.71 ± 0.81
360 K, 6997.3 kPa, Liquid | 1113.07 ± 0.85
360 K, 7245.1 kPa, Liquid | 1113.38 ± 0.86
370 K, 71.6 kPa, Gas | 3.44 ± 0.29
370 K, 105.5 kPa, Gas | 5.15 ± 0.29
370 K, 120.9 kPa, Gas | 6.04 ± 0.29
370 K, 154.8 kPa, Gas | 7.64 ± 0.3
370 K, 176.6 kPa, Gas | 8.92 ± 0.3
370 K, 226.2 kPa, Gas | 11.41 ± 0.31
370 K, 256.7 kPa, Gas | 13.19 ± 0.31
370 K, 328.5 kPa, Gas | 16.95 ± 0.32
370 K, 370 kPa, Gas | 19.53 ± 0.33
370 K, 471.8 kPa, Gas | 25.21 ± 0.34
370 K, 527.2 kPa, Gas | 28.67 ± 0.35
370 K, 666.8 kPa, Gas | 37.39 ± 0.38
370 K, 737.9 kPa, Gas | 42.35 ± 0.4
370 K, 920.6 kPa, Gas | 55.26 ± 0.44
370 K, 1005.3 kPa, Gas | 62.34 ± 0.47
370 K, 1205.2 kPa, Gas | 80.41 ± 0.53
370 K, 1224.5 kPa, Gas | 81.87 ± 0.54
370 K, 1277.5 kPa, Gas | 87.49 ± 0.56
370 K, 1278.1 kPa, Gas | 88.01 ± 0.57
370 K, 1404.3 kPa, Liquid | 992.2 ± 0.35
370 K, 1431.7 kPa, Liquid | 992.85 ± 0.35
370 K, 1520 kPa, Liquid | 995.4 ± 0.34
370 K, 1998.7 kPa, Liquid | 1006.05 ± 0.36
370 K, 2031.8 kPa, Liquid | 1006.03 ± 0.36
370 K, 2519.7 kPa, Liquid | 1016.39 ± 0.38
370 K, 3015.7 kPa, Liquid | 1025.26 ± 0.41
370 K, 3042 kPa, Liquid | 1024.99 ± 0.41
370 K, 3496.9 kPa, Liquid | 1033.2 ± 0.44
370 K, 4012.1 kPa, Liquid | 1041.13 ± 0.47
370 K, 4077.7 kPa, Liquid | 1041.14 ± 0.47
370 K, 4515.8 kPa, Liquid | 1048.28 ± 0.5
370 K, 5031.9 kPa, Liquid | 1055.14 ± 0.53
370 K, 5127.4 kPa, Liquid | 1055.31 ± 0.53
370 K, 5527.5 kPa, Liquid | 1061.36 ± 0.56
370 K, 5982.5 kPa, Liquid | 1066.79 ± 0.59
370 K, 6112.9 kPa, Liquid | 1067.19 ± 0.59
370 K, 6526.3 kPa, Liquid | 1072.95 ± 0.63
370 K, 6886.1 kPa, Liquid | 1076.82 ± 0.65
370 K, 7213.4 kPa, Liquid | 1079.13 ± 0.67
380 K, 74.8 kPa, Gas | 3.57 ± 0.29
380 K, 110.1 kPa, Gas | 5.3 ± 0.29
380 K, 161.5 kPa, Gas | 7.87 ± 0.3
380 K, 235.9 kPa, Gas | 11.67 ± 0.31
380 K, 268.9 kPa, Gas | 13.32 ± 0.31
380 K, 342.4 kPa, Gas | 17.25 ± 0.32
380 K, 408.5 kPa, Gas | 20.83 ± 0.33
380 K, 492.2 kPa, Gas | 25.55 ± 0.35
380 K, 502.4 kPa, Gas | 26.12 ± 0.35
380 K, 602.7 kPa, Gas | 31.98 ± 0.36
380 K, 697.5 kPa, Gas | 37.81 ± 0.38
380 K, 703.9 kPa, Gas | 38.16 ± 0.38
380 K, 804.6 kPa, Gas | 44.65 ± 0.41
380 K, 899.8 kPa, Gas | 51.1 ± 0.43
380 K, 969.2 kPa, Gas | 56.06 ± 0.45
380 K, 1019.1 kPa, Gas | 59.71 ± 0.46
380 K, 1101.8 kPa, Gas | 66.08 ± 0.49
380 K, 1212.9 kPa, Gas | 75.17 ± 0.52
380 K, 1295.3 kPa, Gas | 82.53 ± 0.55
380 K, 1299.2 kPa, Gas | 82.86 ± 0.55
380 K, 1417.2 kPa, Gas | 94.38 ± 0.59
380 K, 1486.5 kPa, Gas | 101.79 ± 0.62
380 K, 1486.8 kPa, Gas | 101.8 ± 0.62
380 K, 1499.7 kPa, Gas | 103.34 ± 0.63
380 K, 1530.9 kPa, Gas | 107.11 ± 0.64
380 K, 1744.3 kPa, Liquid | 935.88 ± 0.5
380 K, 1763.3 kPa, Liquid | 936.59 ± 0.5
380 K, 1785 kPa, Liquid | 937.35 ± 0.5
380 K, 1807.8 kPa, Liquid | 938.21 ± 0.5
380 K, 2057.3 kPa, Liquid | 946.7 ± 0.47
380 K, 2481.3 kPa, Liquid | 959.56 ± 0.44
380 K, 2986.2 kPa, Liquid | 972.71 ± 0.41
380 K, 3036.6 kPa, Liquid | 973.66 ± 0.41
380 K, 3496.2 kPa, Liquid | 984.34 ± 0.38
380 K, 4004.9 kPa, Liquid | 994.7 ± 0.35
380 K, 4035.7 kPa, Liquid | 994.89 ± 0.35
380 K, 4514.5 kPa, Liquid | 1004.14 ± 0.35
380 K, 4998.2 kPa, Liquid | 1012.37 ± 0.38
380 K, 5093.2 kPa, Liquid | 1013.21 ± 0.38
380 K, 5510.3 kPa, Liquid | 1020.45 ± 0.41
380 K, 6032.6 kPa, Liquid | 1028.11 ± 0.44
380 K, 6103.7 kPa, Liquid | 1028.48 ± 0.44
380 K, 6514.1 kPa, Liquid | 1034.76 ± 0.47
380 K, 7011.9 kPa, Liquid | 1041.19 ± 0.5
380 K, 7127.1 kPa, Liquid | 1041.96 ± 0.5

mass density
Settings | 360 K | 370 K | 380 K
Gas | 77.81 ± 0.25 kg/m3 | 101.33 ± 0.29 kg/m3 | 133.96 ± 0.34 kg/m3
Liquid | 1040.97 ± 0.43 kg/m3 and 1042.15 ± 0.43 kg/m3 and 1042.21 ± 0.43 kg/m3 | 991.98 ± 0.35 kg/m3 and 992.32 ± 0.35 kg/m3 and 992.42 ± 0.35 kg/m3 | 934.86 ± 0.48 kg/m3 and 935.87 ± 0.48 kg/m3
